Like-named read-outs stand apart in the source and are kept apart here.

For one series, the system named is HepG-2 cell line. Kind of series: In vitro cytotoxicity on HepG-2 cell line. In kind it is cell-based. The following applies: HepG-2 human hepatocellular carcinoma cells, concentration inhibiting cell viability by 50%, mean of three values, read-out: IC50 (Mean ± SEM) HepG-2. From the text: (§1) In vitro bioassay on human cancer cell lines was adopted against two cancer cell lines (MCF-7 and HepG-2). HepG2, human hepatocellular carcinoma and MCF-7, human breast cancer cell lines were obtained from Sigma-Aldrich Chemie GmbH, Taufkirchen, Germany.

The subject of the next series is MCF-7 cell line. Kind of series: In vitro cytotoxicity on MCF-7 cell line. In kind it is cell-based. To be noted: MCF-7 human breast cancer cells; concentration inhibiting cell viability by 50%; mean of three values; read-out: IC50 (Mean ± SEM) MCF-7.
Description: as §1

A further series has as its target CDK-2 (Homo sapiens, UniProt P24941). Nature of the series: In vitro kinase inhibition, ELISA assay. In kind it is biochemical. The following applies: mean of three values, read-out: IC50 (Mean±SEM) CDK-2. On the technique in general: In an ELISA, binding on a coated surface is turned into a signal by an enzyme label.
The target in the next series is PDGFRβ (Homo sapiens, UniProt P09619). Nature of the series: In vitro kinase inhibition, ELISA assay. In kind it is biochemical. To be noted: mean of three values, read-out: IC50 (Mean±SEM) PDGFRβ.
PDGFRβ, sequence (P09619 33-1106): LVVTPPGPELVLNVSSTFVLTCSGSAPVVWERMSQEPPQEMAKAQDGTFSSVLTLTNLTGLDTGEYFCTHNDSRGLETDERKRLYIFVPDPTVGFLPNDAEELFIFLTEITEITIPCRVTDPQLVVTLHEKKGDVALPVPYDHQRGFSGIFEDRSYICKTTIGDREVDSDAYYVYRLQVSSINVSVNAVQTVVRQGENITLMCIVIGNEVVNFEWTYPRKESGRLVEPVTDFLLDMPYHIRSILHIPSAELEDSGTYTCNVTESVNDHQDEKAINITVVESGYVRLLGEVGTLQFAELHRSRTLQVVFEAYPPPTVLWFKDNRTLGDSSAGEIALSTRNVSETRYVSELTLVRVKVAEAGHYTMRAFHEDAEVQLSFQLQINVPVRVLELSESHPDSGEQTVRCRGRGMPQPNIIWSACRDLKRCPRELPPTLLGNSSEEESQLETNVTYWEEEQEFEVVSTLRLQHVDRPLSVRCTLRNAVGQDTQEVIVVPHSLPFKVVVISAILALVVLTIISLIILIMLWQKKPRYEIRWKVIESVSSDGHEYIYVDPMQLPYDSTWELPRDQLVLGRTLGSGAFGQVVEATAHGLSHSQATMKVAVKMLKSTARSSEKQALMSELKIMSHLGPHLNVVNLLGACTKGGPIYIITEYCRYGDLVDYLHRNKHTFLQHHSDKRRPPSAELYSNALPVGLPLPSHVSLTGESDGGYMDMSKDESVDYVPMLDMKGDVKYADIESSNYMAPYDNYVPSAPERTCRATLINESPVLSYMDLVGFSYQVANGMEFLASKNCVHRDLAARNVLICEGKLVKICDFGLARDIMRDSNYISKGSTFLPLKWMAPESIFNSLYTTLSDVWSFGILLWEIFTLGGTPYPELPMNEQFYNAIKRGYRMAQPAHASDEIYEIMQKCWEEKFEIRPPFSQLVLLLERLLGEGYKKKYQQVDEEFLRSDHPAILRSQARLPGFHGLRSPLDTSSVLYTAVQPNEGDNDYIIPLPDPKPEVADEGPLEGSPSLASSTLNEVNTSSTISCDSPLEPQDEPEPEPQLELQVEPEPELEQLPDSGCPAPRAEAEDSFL
The target in another series is EGFR (Homo sapiens, UniProt P00533). Nature of the series: In vitro kinase inhibition, ELISA assay. In kind it is biochemical. To be noted: mean of three values, read-out: IC50 (Mean±SEM) EGFR. Here is the method: The in vitro enzyme inhibition determination for compound 5c was carried out in confirmatory diagnostic unit, Vacsera, Egypt. […]
EGFR, sequence (P00533 25-1210): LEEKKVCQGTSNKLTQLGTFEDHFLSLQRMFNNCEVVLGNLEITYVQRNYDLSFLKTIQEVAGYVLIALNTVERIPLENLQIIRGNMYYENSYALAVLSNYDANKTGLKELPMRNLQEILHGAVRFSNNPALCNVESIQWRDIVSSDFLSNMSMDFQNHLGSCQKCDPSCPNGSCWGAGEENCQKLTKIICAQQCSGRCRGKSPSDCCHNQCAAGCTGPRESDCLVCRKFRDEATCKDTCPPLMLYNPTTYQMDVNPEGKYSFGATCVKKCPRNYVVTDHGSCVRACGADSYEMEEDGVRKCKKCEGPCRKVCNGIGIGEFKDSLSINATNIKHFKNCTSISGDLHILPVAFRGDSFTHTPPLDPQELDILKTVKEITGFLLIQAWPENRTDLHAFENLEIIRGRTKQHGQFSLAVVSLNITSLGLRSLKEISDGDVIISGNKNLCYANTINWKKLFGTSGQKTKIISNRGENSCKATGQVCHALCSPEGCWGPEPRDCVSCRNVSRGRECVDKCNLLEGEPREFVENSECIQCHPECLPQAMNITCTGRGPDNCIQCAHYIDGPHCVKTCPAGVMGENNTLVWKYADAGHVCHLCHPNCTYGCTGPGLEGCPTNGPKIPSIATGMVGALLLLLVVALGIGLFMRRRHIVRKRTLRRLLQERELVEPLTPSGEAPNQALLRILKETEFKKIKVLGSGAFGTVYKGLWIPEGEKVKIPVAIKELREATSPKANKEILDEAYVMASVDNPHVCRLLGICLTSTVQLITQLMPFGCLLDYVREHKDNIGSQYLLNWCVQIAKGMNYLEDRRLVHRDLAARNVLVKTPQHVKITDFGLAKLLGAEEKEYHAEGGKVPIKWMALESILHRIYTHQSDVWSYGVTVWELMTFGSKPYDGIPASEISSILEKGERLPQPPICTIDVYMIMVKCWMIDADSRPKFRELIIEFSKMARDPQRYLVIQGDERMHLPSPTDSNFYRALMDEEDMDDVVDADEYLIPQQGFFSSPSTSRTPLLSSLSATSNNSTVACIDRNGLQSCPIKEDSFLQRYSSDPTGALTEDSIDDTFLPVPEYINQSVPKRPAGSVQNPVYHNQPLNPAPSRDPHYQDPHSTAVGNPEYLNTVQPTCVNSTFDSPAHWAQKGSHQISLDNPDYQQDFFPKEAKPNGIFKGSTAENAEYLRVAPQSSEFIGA

Turning to `O=c1[nH]cc(F)c(=O)[nH]1` [5-Fluorouracil®, 5-Fluorouracil, reference compound], the IC50 with HepG-2 cell line (HepG2) came to 43.8 ± 1.84 µM.
Take `CC[C@H](C)[C@H](NC(=O)c1cccc(C(=O)N[C@H](C(=O)N[C@H](C(=O)OC)[C@@H](C)CC)[C@@H](C)CC)n1)C(=O)N[C@H](C(=O)OC)[C@@H](C)CC` [Compound 2a, N^α-Dipicolinoyl-bis[L-ILe-L-ILe-methyl ester]]: the melting point is 106 to 108 °C. Further, the concentration for half-maximal inhibition (IC50) with MCF-7 cell line was 31.6 ± 1.3 µM. Further, in the series on HepG-2 cell line, the half-inhibitory concentration (IC50) was determined as 20.4 ± 1.36 µM.
For `CC[C@H](C)[C@H](NC(=O)c1cccc(C(=O)N[C@H](C(=O)N[C@@H](Cc2ccccc2)C(=O)OC)[C@@H](C)CC)n1)C(=O)N[C@@H](Cc1ccccc1)C(=O)OC` [Compound 2b, N^α-Dipicolinoyl-bis[L-ILe-L-Phe-methyl ester]] the same measures were 122 to 124 °C, 32.6 ± 1.5 µM and 15.8 ± 1.66 µM.
For `CC[C@H](C)[C@H](NC(=O)[C@H](Cc1ccccc1)NC(=O)c1cccc(C(=O)N[C@@H](Cc2ccccc2)C(=O)N[C@H](C(=O)OC)[C@@H](C)CC)n1)C(=O)OC` [Compound 2c, N^α-Dipicolinoyl-bis[L-Phe-L-ILe-methyl ester]] the same measures were 150 to 152 °C, more than 100 µM and 35.5 ± 1.83 µM.
For `CC[C@H](C)[C@H](NC(=O)[C@@H](NC(=O)c1cccc(C(=O)N[C@H](C(=O)N[C@H](C(=O)O)[C@@H](C)CC)[C@@H](C)CC)n1)[C@@H](C)CC)C(=O)O` [Compound 3a, N^α-Dipicolinoyl-bis[L-ILe-L-ILe]acid] the same measures were 178 to 180 °C, more than 100 µM and 26 ± 2.35 µM.
Consider `CC[C@H](C)[C@H](NC(=O)c1cccc(C(=O)N[C@H](C(=O)N[C@@H](Cc2ccccc2)C(=O)O)[C@@H](C)CC)n1)C(=O)N[C@@H](Cc1ccccc1)C(=O)O` [Compound 3b, N^α-Dipicolinoyl-bis[L-ILe-L-Phe]acid], for which the melting point fell in the range of 184 to 186 °C. In addition, the IC50 in the series with MCF-7 cell line was 25.3 ± 1.18 µM. Also, the half-inhibitory concentration (IC50) with HepG-2 cell line worked out at 13.5 ± 1.45 µM.
The corresponding values for `CC[C@H](C)[C@H](NC(=O)[C@H](Cc1ccccc1)NC(=O)c1cccc(C(=O)N[C@@H](Cc2ccccc2)C(=O)N[C@H](C(=O)O)[C@@H](C)CC)n1)C(=O)O` [Compound 3c, N^α-Dipicolinoyl-bis[L-Phe-L-ILe]acid] are 202 to 204 °C, 29.6 ± 2.06 µM and 26.6 ± 1.85 µM.
The corresponding values for `CC[C@H](C)[C@@H]1NC(=O)c2cccc(n2)C(=O)N[C@@H]([C@@H](C)CC)C(=O)N[C@@H]([C@@H](C)CC)C(=O)N[C@H](C(=O)OC)CCCCNC(=O)[C@H]([C@@H](C)CC)NC1=O` [Compound 4a, Cyclo-(N^α-dipicolinoyl)-bis-[L-ILe-L-ILe]-L-Lys-OMe] are 77 to 79 °C, more than 100 µM and 11.6 ± 2.7 µM.
The corresponding values for `CC[C@H](C)[C@@H]1NC(=O)c2cccc(n2)C(=O)N[C@@H]([C@@H](C)CC)C(=O)N[C@@H](Cc2ccccc2)C(=O)N[C@H](C(=O)OC)CCCCNC(=O)[C@H](Cc2ccccc2)NC1=O` [Compound 4b, Cyclo-(N^α-Dipicolinoyl)-bis-[L-ILe-L-Phe]-L-Lys-OMe] are 104 to 106 °C, 10.5 ± 1.33 µM and 10.2 ± 2.2 µM.
In the case of `CC[C@H](C)[C@@H]1NC(=O)[C@H](Cc2ccccc2)NC(=O)c2cccc(n2)C(=O)N[C@@H](Cc2ccccc2)C(=O)N[C@@H]([C@@H](C)CC)C(=O)N[C@H](C(=O)OC)CCCCNC1=O` [Compound 4c, Cyclo-(N^α-Dipicolinoyl)-bis-[L-Phe-L-ILe]-L-Lys-OMe], the melting point lay within 140 to 142 °C. For the same compound, the concentration for half-maximal inhibition (IC50) in the series on MCF-7 cell line was found to be 29.2 ± 1.39 µM. Besides, the half-maximal inhibitory concentration (IC50) with HepG-2 cell line was 18.8 ± 1.47 µM.
The corresponding values for `CC[C@H](C)[C@@H]1NC(=O)c2cccc(n2)C(=O)N[C@@H]([C@@H](C)CC)C(=O)N[C@@H]([C@@H](C)CC)C(=O)N[C@H](C(=O)O)CCCCNC(=O)[C@H]([C@@H](C)CC)NC1=O` [Compound 5a, Cyclo-(N^α-dipicolinoyl)-bis [L-ILe-L-ILe]-L-Lys-OH] are 108 to 110 °C, 12.7 ± 2.4 µM and 11.2 ± 1.95 µM.
For `CC[C@H](C)[C@@H]1NC(=O)c2cccc(n2)C(=O)N[C@@H]([C@@H](C)CC)C(=O)N[C@@H](Cc2ccccc2)C(=O)N[C@H](C(=O)O)CCCCNC(=O)[C@H](Cc2ccccc2)NC1=O` [Compound 5b, Cyclo-(N^α-dipicolinoyl)-bis [L-ILe-L-Phe]-L-Lys-OH] the same measures were 128 to 130 °C, 11.3 ± 1.15 µM and 10.1 ± 2.05 µM.
Turning to `CC[C@H](C)[C@@H]1NC(=O)[C@H](Cc2ccccc2)NC(=O)c2cccc(n2)C(=O)N[C@@H](Cc2ccccc2)C(=O)N[C@@H]([C@@H](C)CC)C(=O)N[C@H](C(=O)O)CCCCNC1=O` [Compound 5c, Cyclo-(N^α-dipicolinoyl)-bis [L-Phe-L-ILe]-L-Lys-OH], the melting point is 178 to 180 °C. The concentration for half-maximal inhibition (IC50) on CDK-2 was 0.06 µM. Moreover, the half-maximal inhibitory concentration (IC50) in the series on MCF-7 cell line stood at 9.41 ± 1.25 µM. On PDGFRβ, the IC50 was 0.08 µM. Moreover, the half-inhibitory concentration (IC50) in the series on HepG-2 cell line worked out at 7.53 ± 1.33 µM. The IC50 at EGFR turned out to be 0.14 µM.
Consider `CC[C@H](C)[C@@H]1NC(=O)c2cccc(n2)C(=O)N[C@@H]([C@@H](C)CC)C(=O)N[C@@H]([C@@H](C)CC)C(=O)N[C@H](C(=O)NN)CCCCNC(=O)[C@H]([C@@H](C)CC)NC1=O` [Compound 6a, Cyclo-(N^α-dipicolinoyl)-bis[L-ILe-L-ILe]-L-Lys-NHNH2], for which the melting point was 180 to 182 °C. The 50% inhibitory concentration (IC50) with MCF-7 cell line is 11.8 ± 1.62 µM. The 50% inhibitory concentration (IC50) with HepG-2 cell line was 12.4 ± 1.3 µM.
The corresponding values for `CC[C@H](C)[C@@H]1NC(=O)c2cccc(n2)C(=O)N[C@@H]([C@@H](C)CC)C(=O)N[C@@H](Cc2ccccc2)C(=O)N[C@H](C(=O)NN)CCCCNC(=O)[C@H](Cc2ccccc2)NC1=O` [Compound 6b, Cyclo-(N^α-dipicolinoyl)-bis[L-ILe-L-Phe]-L-Lys-NHNH2] are 161 to 163 °C, 10.9 ± 1.1 µM and 11.5 ± 1.7 µM.
For `CC[C@H](C)[C@@H]1NC(=O)[C@H](Cc2ccccc2)NC(=O)c2cccc(n2)C(=O)N[C@@H](Cc2ccccc2)C(=O)N[C@@H]([C@@H](C)CC)C(=O)N[C@H](C(=O)NN)CCCCNC1=O` [Compound 6c, Cyclo-(N^α-Dipicolinoyl)-bis[L-Phe-L-ILe]-L-Lys-NHNH2], the melting point was 208 to 210 °C. Further, the IC50 in the series on MCF-7 cell line was more than 100 µM. Moreover, the IC50 with HepG-2 cell line came out at 12.1 ± 1.68 µM.

What is called IC50 is the concentration that gives 50% inhibition. Usually melting point stands for the temperature, or range, at which the solid turns liquid.

These data come from paper PMC6222410, “Design, Synthesis and Docking Studies of Novel Macrocyclic Pentapeptides as Anticancer Multi-Targeted Kinase Inhibitors” (Molecules : A Journal of Synthetic Chemistry and Natural …, 2018).
